Results as given in ChEMBL document CHEMBL1201862, “PubChem BioAssay data set” (2004).
Activity calls are given as the source filed them.

Assays:
[1] = tested on: Streptococcus sp. 'group A'; assay: growth inhibition of control SK(-) GAS strain, dose response, counter-screen for streptokinase expression inhibitor project, luminescence, kanamycin, BacTiterGlo, confirmation (AID 1900); format: functional, organism-based
Streptokinase A = target: T1, Streptokinase A (Streptococcus pyogenes serotype M1, UniProt P10520); assay: S. pyogenes streptokinase expression inhibitors, potency, dose response, plasminogen activation absorbance, OD405 (AID 1914); format: functional, Streptococcus pyogenes M1 GAS;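 further: secreted streptokinase activity via plasminogen activation per viability signal from cell pellet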
T1 sequence (P10520 whole entry): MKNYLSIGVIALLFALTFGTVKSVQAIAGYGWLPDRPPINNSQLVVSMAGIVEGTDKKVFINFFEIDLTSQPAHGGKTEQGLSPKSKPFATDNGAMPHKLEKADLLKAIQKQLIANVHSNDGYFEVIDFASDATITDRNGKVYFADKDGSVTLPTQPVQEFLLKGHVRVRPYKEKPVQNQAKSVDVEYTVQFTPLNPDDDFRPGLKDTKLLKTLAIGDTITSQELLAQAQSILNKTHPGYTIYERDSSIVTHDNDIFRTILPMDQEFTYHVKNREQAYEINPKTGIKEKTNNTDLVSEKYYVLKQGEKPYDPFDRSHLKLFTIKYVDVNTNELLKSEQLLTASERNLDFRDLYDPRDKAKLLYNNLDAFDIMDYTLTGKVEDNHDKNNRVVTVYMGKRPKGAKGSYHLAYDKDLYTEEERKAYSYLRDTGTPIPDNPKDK

Streptococcus = assay: Group A Streptococcus viability loss, dose response, counter-screen for streptokinase expression inhibitor project, luminescence, BacTiterGlo (AID 1915); format: functional, organism-based;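 further: potency for reduction of bacterial viability or growth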
[2] = target: 26S proteasome non-ATPase regulatory subunit 14 (Homo sapiens, UniProt O00487); assay: inhibition of proteasome subunit RPN11 – biochemical, fluorescence polarization, uHTS hits, confirmation (AID 602368); format: functional
Chain of 26S proteasome non-ATPase regulatory subunit 14 (O00487 whole entry): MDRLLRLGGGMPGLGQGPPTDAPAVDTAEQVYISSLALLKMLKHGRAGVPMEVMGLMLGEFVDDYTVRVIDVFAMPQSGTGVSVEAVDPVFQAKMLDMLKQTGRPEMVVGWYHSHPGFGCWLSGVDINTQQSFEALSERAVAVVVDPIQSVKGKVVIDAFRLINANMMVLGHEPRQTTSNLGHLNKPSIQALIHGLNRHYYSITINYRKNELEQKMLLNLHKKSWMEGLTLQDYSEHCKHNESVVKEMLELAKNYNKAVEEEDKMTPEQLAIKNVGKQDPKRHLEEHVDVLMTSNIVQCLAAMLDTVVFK

[3] = target: 72 kDa type IV collagenase (Homo sapiens, UniProt P08253); assay: Dose Response validation of uHTS RPN11 inhibitor hits using a MMP-2 Fluorescence assay.; format: functional
Chain of 72 kDa type IV collagenase (P08253 whole entry): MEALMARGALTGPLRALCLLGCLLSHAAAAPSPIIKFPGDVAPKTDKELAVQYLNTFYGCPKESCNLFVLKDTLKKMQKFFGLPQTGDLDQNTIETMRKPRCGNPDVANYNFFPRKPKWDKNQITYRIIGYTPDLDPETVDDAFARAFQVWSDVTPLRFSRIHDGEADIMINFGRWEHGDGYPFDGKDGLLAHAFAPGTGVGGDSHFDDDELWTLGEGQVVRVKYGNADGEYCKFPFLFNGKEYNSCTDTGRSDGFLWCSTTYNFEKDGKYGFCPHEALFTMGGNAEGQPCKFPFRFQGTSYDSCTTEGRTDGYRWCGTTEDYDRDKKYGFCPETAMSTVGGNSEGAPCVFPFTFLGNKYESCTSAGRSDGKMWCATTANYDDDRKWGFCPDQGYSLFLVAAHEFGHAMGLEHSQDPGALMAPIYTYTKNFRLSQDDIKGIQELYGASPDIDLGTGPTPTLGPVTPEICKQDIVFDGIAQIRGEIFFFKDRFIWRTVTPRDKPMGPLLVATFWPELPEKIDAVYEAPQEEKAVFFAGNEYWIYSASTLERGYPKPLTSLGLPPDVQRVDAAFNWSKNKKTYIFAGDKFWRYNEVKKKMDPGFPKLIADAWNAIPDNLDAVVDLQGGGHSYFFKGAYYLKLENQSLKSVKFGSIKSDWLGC

Prothrombin = Prothrombin (Bos taurus, UniProt P00735); assay: thrombin inhibition, dose response, biochemical, fluorescence polarization, uHTS hits (AID 602369); format: functional
Melanocortin receptor 4 = Melanocortin receptor 4 (Homo sapiens, UniProt P32245); assay: MC4R antagonist potency on cAMP, dose response, cell-based, TR-FRET, biased antagonists (AID 602298); format: functional;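 further: antagonist potency against agonist-stimulated cAMP production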
Chain of Melanocortin receptor 4 (P32245 whole entry): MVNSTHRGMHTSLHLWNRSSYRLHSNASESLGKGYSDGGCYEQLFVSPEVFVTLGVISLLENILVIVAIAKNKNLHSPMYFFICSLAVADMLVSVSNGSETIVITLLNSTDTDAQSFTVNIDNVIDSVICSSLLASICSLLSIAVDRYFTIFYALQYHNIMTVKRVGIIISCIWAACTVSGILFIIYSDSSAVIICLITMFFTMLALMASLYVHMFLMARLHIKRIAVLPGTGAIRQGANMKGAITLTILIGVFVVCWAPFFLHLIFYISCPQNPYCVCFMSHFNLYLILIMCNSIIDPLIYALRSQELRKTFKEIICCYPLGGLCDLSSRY

[4] = nonselective inhibitors of cellular cAMP signaling, dose response, counter-screen for MC4R biased antagonist project, cell-based, TR-FRET cAMP detection (AID 602305); format: functional;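 further: U2OS cells stimulated with forskolin near its EC80 as the cAMP inducer; potency is for inhibition of forskolin-stimulated cAMP signaling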
[5] = target: Melanin-concentrating hormone receptor 1 (Homo sapiens, UniProt Q99705); assay: Late-stage fluorescence-based counterscreen for antagonists of the G-protein coupled receptor 7 (GPR7): cell-based dose response assay to identify antagonists of the melanin-concentrating hormone receptor 1 (MCHR1) Set 6.; format: functional
Chain of Melanin-concentrating hormone receptor 1 (Q99705 whole entry): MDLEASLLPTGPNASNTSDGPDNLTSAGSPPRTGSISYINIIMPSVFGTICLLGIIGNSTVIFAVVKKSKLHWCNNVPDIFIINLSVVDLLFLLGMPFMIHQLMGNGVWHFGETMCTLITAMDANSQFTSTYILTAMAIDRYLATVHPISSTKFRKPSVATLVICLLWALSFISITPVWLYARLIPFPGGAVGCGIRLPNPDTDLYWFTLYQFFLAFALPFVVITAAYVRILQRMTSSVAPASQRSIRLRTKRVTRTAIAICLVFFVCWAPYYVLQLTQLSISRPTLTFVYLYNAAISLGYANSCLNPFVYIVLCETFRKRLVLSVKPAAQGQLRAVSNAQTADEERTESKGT

[6] = target: T2, Neuropeptides B/W receptor type 1 (Homo sapiens, UniProt P48145); assay: GPR7 antagonist potency, late-stage follow-up, cell-based, fluorescence, dose response, set 6 (AID 588583); format: functional
T2 sequence (P48145 whole entry): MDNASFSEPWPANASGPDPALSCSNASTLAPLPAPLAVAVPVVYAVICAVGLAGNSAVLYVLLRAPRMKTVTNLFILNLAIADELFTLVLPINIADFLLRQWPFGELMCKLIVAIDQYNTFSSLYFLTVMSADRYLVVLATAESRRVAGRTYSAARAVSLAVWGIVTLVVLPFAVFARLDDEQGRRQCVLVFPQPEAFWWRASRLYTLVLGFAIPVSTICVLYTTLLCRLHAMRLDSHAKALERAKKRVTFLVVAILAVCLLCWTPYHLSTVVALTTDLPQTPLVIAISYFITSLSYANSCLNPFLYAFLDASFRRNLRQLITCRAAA

Aurora kinase B = Aurora kinase B (Homo sapiens, UniProt Q96GD4); format: functional
Chain of Aurora kinase B (Q96GD4 whole entry): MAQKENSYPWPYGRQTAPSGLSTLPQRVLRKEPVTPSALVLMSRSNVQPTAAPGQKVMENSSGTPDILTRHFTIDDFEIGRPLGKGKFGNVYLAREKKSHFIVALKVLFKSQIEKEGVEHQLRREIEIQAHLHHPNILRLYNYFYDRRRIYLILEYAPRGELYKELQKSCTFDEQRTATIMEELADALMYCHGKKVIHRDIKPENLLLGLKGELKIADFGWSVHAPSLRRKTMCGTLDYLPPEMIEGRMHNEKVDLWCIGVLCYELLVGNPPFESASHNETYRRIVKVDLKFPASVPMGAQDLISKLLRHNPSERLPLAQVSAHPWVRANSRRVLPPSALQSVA

Question: For `O=C1NC(=S)N(C2CCCCC2)C(=O)/C1=C/NNC(=O)c1ccccc1`, which EC50 [1] is on record?
Answer: Its EC50 is 0.519 µM (active).

Question: And the EC50 (Streptokinase A)?
Answer: Its EC50 is > 150 µM (not active).

Question: And the EC50 (Streptococcus)?
Answer: Its EC50 is 8.22 µM (active).

Question: And the IC50 [2]?
Answer: The IC50 was 40.3 µM (active).

Question: What about the IC50 [3] of the same molecule?
Answer: Its IC50 is > 100 µM (inactive).

Question: And the IC50 (Prothrombin)?
Answer: Its IC50 is 36.1 µM (active).

Question: Which results are given for `CCOC(=O)c1cnc2ccc(OCC)cc2c1NCc1ccccc1`?
Answer: IC50 (Melanocortin receptor 4): > 64.6 µM (inactive); IC50 [4]: > 64.6 µM (inactive)

Question: Which IC50 [5] does the source give for `N#CC(c1ccccn1)c1c(Br)cnn(Cc2cccc3ccccc23)c1=O` (stereo unspecified) here?
Answer: Its IC50 is 0.8 µM (active).

Question: And the IC50 [6]?
Answer: Its IC50 is 0.8 µM (active).

Question: For `Cc1cccc(Nc2nccc(Nc3ccccc3C(=O)O)n2)c1`, which Ki (Aurora kinase B) is on record?
Answer: The Ki was 0.00126 µM (active).
